Reference: article PMC7901654, “Bioisosteric Discovery of NPA101.3, a Second-Generation RET/VEGFR2 Inhibitor Optimized for Single-Agent Polypharmacology” (Journal of Medicinal Chemistry, 2020)

How the values were obtained:
Test in all cases: KinomeScan panel screen
Format in all cases: binding
AKT1 = target: T1, AKT1 (Homo sapiens, UniProt P31749); conditions: AKT1, 100 nM; read-out: Percent Control
T1 construct: purchased DiscoveRx KINOMEscan (TRKA and CSF1R IC50 enzymes from Invitrogen)
Description: (§1) In addition, NPA101.3, at a concentration of 100 nM, was subjected to a kinome scan against a 96-kinase panel representing major kinome clusters (Table S2). The compound featured good selectivity, displaying strong binding activity (>90% bound) for only seven additional kinases [CSF1R (colony stimulating factor 1 receptor), FRK (fyn-related Src family tyrosine kinase), HCK (HCK proto-oncogene, Src family tyrosine kinase), LYN (lyn proto-oncogene, Src family tyrosine kinase), MKNK2 (MAPK-interacting serine/threonine kinase 2), TRKA (neurotrophic receptor tyrosine kinase 1), and TRKC (neurotrophic receptor tyrosine kinase 3)] and weak binding (>10–35% bound) for six other kinases (Table S2 and Figure S2). It is important to note that the measurement of binding affinity, which is based on control ligand displacement (Kd), is more sensitive than the in vitro kinase assay. Among the seven kinases with >90% binding, TRKA and CSF1R were selected for an in vitro kinase assay.
(§2) Supplementary Table S2: NPA101.3 KinomeScan Panel screen.
(§3) NPA101.3 was screened at a single concentration of 100 nM. Hits values lower than
(§4) 10% of control were considered strongly positive.
(§5) DiscoveRx Gene Entrez Gene Percent Compound
(§6) Symbol Symbol Control Concentration

AURKB = target: T2, AURKB (Homo sapiens, UniProt Q96GD4); conditions: 100 nM, read-out: Percent Control
T2 construct: purchased DiscoveRx KINOMEscan (TRKA and CSF1R IC50 enzymes from Invitrogen)
Description: as §1, §2, §3, §4, §5, §6

AXL = target: T3, AXL (Homo sapiens, UniProt P30530); conditions: 100 nM, read-out: Percent Control
T3 construct: purchased DiscoveRx KINOMEscan (TRKA and CSF1R IC50 enzymes from Invitrogen)
Description: as §1, §2, §3, §4, §5, §6

BTK = target: T4, BTK (Homo sapiens, UniProt Q06187); conditions: 100 nM, read-out: Percent Control
T4 construct: purchased DiscoveRx KINOMEscan (TRKA and CSF1R IC50 enzymes from Invitrogen)
Description: as §1, §2, §3, §4, §5, §6

CDK7 = target: T5, CDK7 (Homo sapiens, UniProt P50613); conditions: CDK7, 100 nM; read-out: Percent Control
T5 construct: purchased DiscoveRx KINOMEscan (TRKA and CSF1R IC50 enzymes from Invitrogen)
Description: as §1, §2, §3, §4, §5, §6

CDK9 = target: T6, CDK9 (Homo sapiens, UniProt P50750); conditions: CDK9, 100 nM; read-out: Percent Control
T6 construct: purchased DiscoveRx KINOMEscan (TRKA and CSF1R IC50 enzymes from Invitrogen)
Description: as §1, §2, §3, §4, §5, §6

CSNK1A1 = target: T7, CSNK1A1 (Homo sapiens, UniProt P48729); conditions: CSNK1A1, 100 nM; read-out: Percent Control
T7 construct: purchased DiscoveRx KINOMEscan (TRKA and CSF1R IC50 enzymes from Invitrogen)
Description: as §1, §2, §3, §4, §5, §6

DLK = target: T8, DLK (Homo sapiens, UniProt Q12852); conditions: 100 nM, read-out: Percent Control
T8 construct: purchased DiscoveRx KINOMEscan (TRKA and CSF1R IC50 enzymes from Invitrogen)
Description: as §1, §2, §3, §4, §5, §6

DMPK = target: T9, DMPK (Homo sapiens, UniProt Q09013); conditions: 100 nM, read-out: Percent Control
T9 construct: purchased DiscoveRx KINOMEscan (TRKA and CSF1R IC50 enzymes from Invitrogen)
Description: as §1, §2, §3, §4, §5, §6

EPHA1 = target: T10, EPHA1 (Homo sapiens, UniProt P21709); conditions: EPHA1, 100 nM; read-out: Percent Control
T10 construct: purchased DiscoveRx KINOMEscan (TRKA and CSF1R IC50 enzymes from Invitrogen)
Description: as §1, §2, §3, §4, §5, §6

FER = target: T11, FER (Homo sapiens, UniProt P16591); conditions: 100 nM, read-out: Percent Control
T11 construct: purchased DiscoveRx KINOMEscan (TRKA and CSF1R IC50 enzymes from Invitrogen)
Description: as §1, §2, §3, §4, §5, §6

FYN = target: T12, FYN (Homo sapiens, UniProt P06241); conditions: 100 nM, read-out: Percent Control
T12 construct: purchased DiscoveRx KINOMEscan (TRKA and CSF1R IC50 enzymes from Invitrogen)
Description: as §1, §2, §3, §4, §5, §6

GSK3B = target: T13, GSK3B (Homo sapiens, UniProt P49841); conditions: 100 nM, read-out: Percent Control
T13 construct: purchased DiscoveRx KINOMEscan (TRKA and CSF1R IC50 enzymes from Invitrogen)
Description: as §1, §2, §3, §4, §5, §6

IGF1R = target: T14, IGF1R (Homo sapiens, UniProt P08069); conditions: 100 nM, read-out: Percent Control
T14 construct: purchased DiscoveRx KINOMEscan (TRKA and CSF1R IC50 enzymes from Invitrogen)
Description: as §1, §2, §3, §4, §5, §6

IRAK4 = target: T15, IRAK4 (Homo sapiens, UniProt Q9NWZ3); conditions: IRAK4, 100 nM; read-out: Percent Control
T15 construct: purchased DiscoveRx KINOMEscan (TRKA and CSF1R IC50 enzymes from Invitrogen)
T15 sequence (Q9NWZ3 whole entry): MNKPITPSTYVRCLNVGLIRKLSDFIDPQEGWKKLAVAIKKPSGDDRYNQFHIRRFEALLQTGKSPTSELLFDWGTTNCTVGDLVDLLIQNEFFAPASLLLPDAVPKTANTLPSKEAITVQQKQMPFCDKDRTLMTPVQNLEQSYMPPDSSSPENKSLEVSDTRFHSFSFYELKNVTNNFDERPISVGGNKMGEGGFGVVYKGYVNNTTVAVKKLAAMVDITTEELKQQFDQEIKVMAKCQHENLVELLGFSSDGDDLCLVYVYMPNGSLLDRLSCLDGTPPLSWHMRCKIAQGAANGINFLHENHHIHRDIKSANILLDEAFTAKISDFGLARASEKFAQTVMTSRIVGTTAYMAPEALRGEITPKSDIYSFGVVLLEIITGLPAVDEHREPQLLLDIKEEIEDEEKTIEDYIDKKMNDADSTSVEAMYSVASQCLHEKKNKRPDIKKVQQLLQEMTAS
Description: as §1, §2, §3, §4, §5, §6

[1] = target: T16, JAK2(JH1domain-catalytic) (Homo sapiens, UniProt O60674); conditions: 100 nM, read-out: Percent Control
T16 construct: JAK2(JH1domain-catalytic); purchased DiscoveRx KINOMEscan (TRKA and CSF1R IC50 enzymes from Invitrogen)
Description: as §1, §2, §3, §4, §5, §6

JNK2 = target: T17, JNK2 (Homo sapiens, UniProt P45984); conditions: JNK2, 100 nM; read-out: Percent Control
T17 construct: purchased DiscoveRx KINOMEscan (TRKA and CSF1R IC50 enzymes from Invitrogen)
Description: as §1, §2, §3, §4, §5, §6

LKB1 = target: T18, LKB1 (Homo sapiens, UniProt Q15831); conditions: LKB1, 100 nM; read-out: Percent Control
T18 construct: purchased DiscoveRx KINOMEscan (TRKA and CSF1R IC50 enzymes from Invitrogen)
Description: as §1, §2, §3, §4, §5, §6

LRRK2 = target: T19, LRRK2 (Homo sapiens, UniProt Q5S007); conditions: LRRK2, 100 nM; read-out: Percent Control
T19 construct: purchased DiscoveRx KINOMEscan (TRKA and CSF1R IC50 enzymes from Invitrogen)
Description: as §1, §2, §3, §4, §5, §6

LTK = target: T20, LTK (Homo sapiens, UniProt P29376); conditions: 100 nM, read-out: Percent Control
T20 construct: purchased DiscoveRx KINOMEscan (TRKA and CSF1R IC50 enzymes from Invitrogen)
Description: as §1, §2, §3, §4, §5, §6

MEK1 = target: T21, MEK1 (Homo sapiens, UniProt Q02750); conditions: MEK1, 100 nM; read-out: Percent Control
T21 construct: purchased DiscoveRx KINOMEscan (TRKA and CSF1R IC50 enzymes from Invitrogen)
Description: as §1, §2, §3, §4, §5, §6

MET = target: T22, MET (Homo sapiens, UniProt P08581); conditions: 100 nM, read-out: Percent Control
T22 construct: purchased DiscoveRx KINOMEscan (TRKA and CSF1R IC50 enzymes from Invitrogen)
Description: as §1, §2, §3, §4, §5, §6

PCTK1 = target: T23, PCTK1 (Homo sapiens, UniProt Q00536); conditions: PCTK1, 100 nM; read-out: Percent Control
T23 construct: purchased DiscoveRx KINOMEscan (TRKA and CSF1R IC50 enzymes from Invitrogen)
T23 sequence (Q00536 whole entry): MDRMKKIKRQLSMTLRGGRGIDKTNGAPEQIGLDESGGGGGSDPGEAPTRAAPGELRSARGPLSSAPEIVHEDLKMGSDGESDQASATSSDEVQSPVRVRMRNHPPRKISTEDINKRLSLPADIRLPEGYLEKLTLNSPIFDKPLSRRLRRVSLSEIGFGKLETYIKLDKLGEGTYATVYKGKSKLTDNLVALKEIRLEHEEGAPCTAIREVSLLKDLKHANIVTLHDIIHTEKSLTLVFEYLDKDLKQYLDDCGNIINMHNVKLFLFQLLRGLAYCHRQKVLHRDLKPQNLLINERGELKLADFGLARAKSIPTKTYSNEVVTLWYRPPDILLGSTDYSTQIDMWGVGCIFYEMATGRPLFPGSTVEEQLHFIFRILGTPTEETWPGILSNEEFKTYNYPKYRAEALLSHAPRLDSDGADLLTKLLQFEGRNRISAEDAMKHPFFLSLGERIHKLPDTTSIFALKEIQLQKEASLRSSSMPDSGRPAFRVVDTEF
Description: as §1, §2, §3, §4, §5, §6

PIK3CA = target: T24, PIK3CA (Homo sapiens, UniProt P42336); conditions: 100 nM, read-out: Percent Control
T24 construct: purchased DiscoveRx KINOMEscan (TRKA and CSF1R IC50 enzymes from Invitrogen)
Description: as §1, §2, §3, §4, §5, §6

ROCK2 = target: T25, ROCK2 (Homo sapiens, UniProt O75116); conditions: ROCK2, 100 nM; read-out: Percent Control
T25 construct: purchased DiscoveRx KINOMEscan (TRKA and CSF1R IC50 enzymes from Invitrogen)
Description: as §1, §2, §3, §4, §5, §6

TAK1 = target: T26, TAK1 (Homo sapiens, UniProt O43318); conditions: TAK1, 100 nM; read-out: Percent Control
T26 construct: purchased DiscoveRx KINOMEscan (TRKA and CSF1R IC50 enzymes from Invitrogen)
Description: as §1, §2, §3, §4, §5, §6

TRKA = target: T27, TRKA (Homo sapiens, UniProt P04629); conditions: 100 nM
T27 construct: purchased Invitrogen
T27 sequence (P04629 33-796): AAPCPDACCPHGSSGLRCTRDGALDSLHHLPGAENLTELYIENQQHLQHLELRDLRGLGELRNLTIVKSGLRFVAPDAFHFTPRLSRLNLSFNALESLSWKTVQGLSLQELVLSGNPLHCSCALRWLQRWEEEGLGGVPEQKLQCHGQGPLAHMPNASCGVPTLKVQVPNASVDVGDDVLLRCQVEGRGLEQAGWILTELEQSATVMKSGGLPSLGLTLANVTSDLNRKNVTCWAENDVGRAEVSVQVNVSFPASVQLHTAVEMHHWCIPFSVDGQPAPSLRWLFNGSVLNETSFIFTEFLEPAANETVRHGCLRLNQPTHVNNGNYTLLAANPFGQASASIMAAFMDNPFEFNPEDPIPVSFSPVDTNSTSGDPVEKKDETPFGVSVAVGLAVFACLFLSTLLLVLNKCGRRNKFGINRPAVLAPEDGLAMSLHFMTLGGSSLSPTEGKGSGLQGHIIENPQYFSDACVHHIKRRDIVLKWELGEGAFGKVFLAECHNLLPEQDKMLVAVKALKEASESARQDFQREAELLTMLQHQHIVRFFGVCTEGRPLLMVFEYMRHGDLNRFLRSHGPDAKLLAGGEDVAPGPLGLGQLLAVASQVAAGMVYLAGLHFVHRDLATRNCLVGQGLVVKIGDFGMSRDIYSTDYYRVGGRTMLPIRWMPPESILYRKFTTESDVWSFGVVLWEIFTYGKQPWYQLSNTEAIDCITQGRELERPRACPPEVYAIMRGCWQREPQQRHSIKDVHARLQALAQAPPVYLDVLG
Description: as §1, §2, §3, §4, §5, §6

TRKC = target: T28, TRKC (Homo sapiens, UniProt Q16288); conditions: 100 nM
T28 construct: purchased DiscoveRx KINOMEscan (TRKA and CSF1R IC50 enzymes from Invitrogen)
T28 sequence (Q16288 32-839): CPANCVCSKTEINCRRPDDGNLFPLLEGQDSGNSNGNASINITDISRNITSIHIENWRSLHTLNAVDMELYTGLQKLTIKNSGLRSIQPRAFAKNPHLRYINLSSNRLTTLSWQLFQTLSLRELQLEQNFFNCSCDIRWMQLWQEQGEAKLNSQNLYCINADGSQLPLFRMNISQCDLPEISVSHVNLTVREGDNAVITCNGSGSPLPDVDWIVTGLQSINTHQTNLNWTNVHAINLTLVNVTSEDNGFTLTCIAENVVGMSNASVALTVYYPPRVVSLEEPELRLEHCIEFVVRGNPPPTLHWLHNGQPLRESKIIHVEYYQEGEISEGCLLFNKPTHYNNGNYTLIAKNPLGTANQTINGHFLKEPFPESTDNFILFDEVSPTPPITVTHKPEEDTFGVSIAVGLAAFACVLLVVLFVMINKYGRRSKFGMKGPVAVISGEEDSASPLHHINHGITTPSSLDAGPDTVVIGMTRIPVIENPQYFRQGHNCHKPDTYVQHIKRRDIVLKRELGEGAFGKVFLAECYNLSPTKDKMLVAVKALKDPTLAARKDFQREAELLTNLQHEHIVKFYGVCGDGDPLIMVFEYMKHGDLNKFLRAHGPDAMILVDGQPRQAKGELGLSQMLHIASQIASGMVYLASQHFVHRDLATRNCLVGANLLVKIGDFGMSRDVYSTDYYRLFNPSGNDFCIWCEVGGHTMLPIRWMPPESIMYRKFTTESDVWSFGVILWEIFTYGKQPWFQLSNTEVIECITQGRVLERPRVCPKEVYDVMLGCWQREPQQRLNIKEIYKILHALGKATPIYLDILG
Description: as §1, §2, §3, §4, §5, §6

TXK = target: T29, TXK (Homo sapiens, UniProt P42681); conditions: 100 nM, read-out: Percent Control
T29 construct: purchased DiscoverX (outsourced KINOMEscan)
T29 sequence (P42681 whole entry): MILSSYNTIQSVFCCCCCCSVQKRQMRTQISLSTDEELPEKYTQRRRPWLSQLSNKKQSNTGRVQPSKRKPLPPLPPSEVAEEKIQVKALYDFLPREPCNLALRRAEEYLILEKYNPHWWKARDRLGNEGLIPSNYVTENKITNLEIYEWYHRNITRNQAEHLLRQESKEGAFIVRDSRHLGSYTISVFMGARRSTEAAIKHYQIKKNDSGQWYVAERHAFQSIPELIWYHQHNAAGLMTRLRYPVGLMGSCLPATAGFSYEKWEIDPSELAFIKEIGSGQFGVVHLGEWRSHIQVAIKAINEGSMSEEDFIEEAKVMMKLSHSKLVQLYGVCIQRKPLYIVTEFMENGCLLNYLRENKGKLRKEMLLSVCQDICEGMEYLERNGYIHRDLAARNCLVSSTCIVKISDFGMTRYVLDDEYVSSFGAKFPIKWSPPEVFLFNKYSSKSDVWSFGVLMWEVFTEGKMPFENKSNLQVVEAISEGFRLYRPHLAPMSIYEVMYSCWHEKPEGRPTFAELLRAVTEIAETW
Description: as §1, §2, §3, §4, §5, §6

ULK1 = target: T30, ULK1 (Homo sapiens, UniProt O75385); conditions: ULK1, 100 nM; read-out: Percent Control
T30 construct: purchased DiscoverX (outsourced KINOMEscan)
T30 sequence (O75385 whole entry): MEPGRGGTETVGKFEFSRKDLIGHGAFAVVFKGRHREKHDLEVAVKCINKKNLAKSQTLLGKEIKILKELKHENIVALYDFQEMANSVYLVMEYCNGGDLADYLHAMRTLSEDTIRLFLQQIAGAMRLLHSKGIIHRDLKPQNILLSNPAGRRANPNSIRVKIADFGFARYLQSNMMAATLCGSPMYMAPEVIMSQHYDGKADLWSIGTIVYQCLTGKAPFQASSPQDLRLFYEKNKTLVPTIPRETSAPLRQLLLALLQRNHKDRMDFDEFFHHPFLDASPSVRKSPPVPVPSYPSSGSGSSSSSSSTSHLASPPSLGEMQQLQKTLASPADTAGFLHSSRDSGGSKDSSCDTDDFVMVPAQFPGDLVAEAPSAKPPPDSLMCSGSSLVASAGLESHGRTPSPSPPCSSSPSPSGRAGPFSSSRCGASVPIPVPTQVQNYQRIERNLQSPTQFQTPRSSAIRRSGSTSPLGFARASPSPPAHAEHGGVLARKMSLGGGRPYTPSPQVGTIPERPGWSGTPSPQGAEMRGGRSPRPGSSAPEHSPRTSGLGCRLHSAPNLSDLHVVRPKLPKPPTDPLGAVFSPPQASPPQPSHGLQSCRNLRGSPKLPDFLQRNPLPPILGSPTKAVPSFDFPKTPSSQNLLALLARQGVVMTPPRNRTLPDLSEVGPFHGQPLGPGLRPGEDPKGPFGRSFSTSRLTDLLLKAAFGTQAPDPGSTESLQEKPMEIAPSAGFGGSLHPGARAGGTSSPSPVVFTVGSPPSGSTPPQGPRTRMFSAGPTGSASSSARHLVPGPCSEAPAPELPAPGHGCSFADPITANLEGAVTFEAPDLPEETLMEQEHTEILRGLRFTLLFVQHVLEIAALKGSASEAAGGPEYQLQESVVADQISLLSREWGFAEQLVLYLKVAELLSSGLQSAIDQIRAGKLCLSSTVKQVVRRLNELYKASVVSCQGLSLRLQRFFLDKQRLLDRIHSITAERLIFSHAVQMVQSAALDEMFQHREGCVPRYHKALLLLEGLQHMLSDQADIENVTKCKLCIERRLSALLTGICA
Description: as §1, §2, §3, §4, §5, §6

YANK2 = target: T31, YANK2 (Homo sapiens, UniProt Q9NY57); conditions: YANK2, 100 nM; read-out: Percent Control
T31 construct: purchased DiscoverX (outsourced KINOMEscan)
T31 sequence (Q9NY57 whole entry): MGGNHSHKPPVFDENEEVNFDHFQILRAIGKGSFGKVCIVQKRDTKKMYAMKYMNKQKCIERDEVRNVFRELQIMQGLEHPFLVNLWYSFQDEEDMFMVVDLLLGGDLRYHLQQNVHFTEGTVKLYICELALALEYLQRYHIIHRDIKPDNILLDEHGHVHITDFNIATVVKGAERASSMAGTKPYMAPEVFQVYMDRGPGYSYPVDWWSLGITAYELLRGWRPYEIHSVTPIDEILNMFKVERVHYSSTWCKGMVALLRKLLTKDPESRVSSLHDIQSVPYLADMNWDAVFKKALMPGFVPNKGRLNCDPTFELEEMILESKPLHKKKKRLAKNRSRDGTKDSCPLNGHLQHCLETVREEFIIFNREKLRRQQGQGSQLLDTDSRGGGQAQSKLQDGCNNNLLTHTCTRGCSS
Description: as §1, §2, §3, §4, §5, §6

T1 sequence (P31749 whole entry): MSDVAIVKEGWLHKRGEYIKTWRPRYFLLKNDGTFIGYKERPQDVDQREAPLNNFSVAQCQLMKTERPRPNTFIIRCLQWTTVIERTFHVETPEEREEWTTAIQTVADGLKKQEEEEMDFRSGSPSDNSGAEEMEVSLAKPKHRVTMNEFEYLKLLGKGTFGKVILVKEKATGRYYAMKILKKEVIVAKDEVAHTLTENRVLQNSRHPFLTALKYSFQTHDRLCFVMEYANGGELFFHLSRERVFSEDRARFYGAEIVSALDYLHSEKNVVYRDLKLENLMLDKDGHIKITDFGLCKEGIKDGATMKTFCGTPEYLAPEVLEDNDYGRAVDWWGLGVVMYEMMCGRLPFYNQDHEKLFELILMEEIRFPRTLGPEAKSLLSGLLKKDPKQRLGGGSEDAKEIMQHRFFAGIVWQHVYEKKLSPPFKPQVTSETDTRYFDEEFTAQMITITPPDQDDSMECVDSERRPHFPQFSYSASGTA

CC(C)(C)c1cc(NC(=O)Cc2ccc(-n3cnc4cc(-c5ccc(S(C)(=O)=O)cc5)ccc43)cc2)no1 [NPA101.3]
remaining binding at 0.1 µM (AKT1): 100%
remaining binding at 0.1 µM (AURKB): 49%
remaining binding at 0.1 µM (AXL): 62%
remaining binding at 0.1 µM (BTK): 93%
remaining binding at 0.1 µM (CDK7): 28%
remaining binding at 0.1 µM (CDK9): 100%
remaining binding at 0.1 µM (CSNK1A1): 69%
remaining binding at 0.1 µM (DLK): 100%
remaining binding at 0.1 µM (DMPK): 99%
remaining binding at 0.1 µM (EPHA1): 39%
remaining binding at 0.1 µM (FER): 96%
remaining binding at 0.1 µM (FYN): 27%
remaining binding at 0.1 µM (GSK3B): 100%
remaining binding at 0.1 µM (IGF1R): 100%
remaining binding at 0.1 µM (IRAK4): 100%
remaining binding at 0.1 µM [1]: 100%
remaining binding at 0.1 µM (JNK2): 78%
remaining binding at 0.1 µM (LKB1): 81%
remaining binding at 0.1 µM (LRRK2): 100%
remaining binding at 0.1 µM (LTK): 61%
remaining binding at 0.1 µM (MEK1): 92%
remaining binding at 0.1 µM (MET): 79%
remaining binding at 0.1 µM (PCTK1): 89%
remaining binding at 0.1 µM (PIK3CA): 100%
remaining binding at 0.1 µM (ROCK2): 100%
remaining binding at 0.1 µM (TAK1): 13%
binding (% bound) (TRKA): > 90 % bound
remaining binding at 0.1 µM (TRKA; TRKA, read-out: Percent Control): 1.3%
binding (% bound) (TRKC): > 90 % bound
remaining binding at 0.1 µM (TRKC; TRKC, read-out: Percent Control): 0.25%
remaining binding at 0.1 µM (TXK): 85%
remaining binding at 0.1 µM (ULK1): 100%
remaining binding at 0.1 µM (YANK2): 98%
